Columns and labels:
[1] = biological target: T1, rat NPT-IIb (Rattus norvegicus, UniProt Q9JJ09); assay: 33P phosphate uptake inhibiting action of rat NPT-IIb expressing cell; type: cell-based; details: HEK293; evaluation concentration 1 μM; 33P uptake in rat NPT-IIb stably expressing 293 cells; read-out: Rat NPT-IIb inhibitory rate (%)
T1 construct: rat NPT-IIb ORF was cloned into p3×FLAG-CMV-10; 3xFLAG (N); expressed in transfected cells
T1 sequence (Q9JJ09 1-695): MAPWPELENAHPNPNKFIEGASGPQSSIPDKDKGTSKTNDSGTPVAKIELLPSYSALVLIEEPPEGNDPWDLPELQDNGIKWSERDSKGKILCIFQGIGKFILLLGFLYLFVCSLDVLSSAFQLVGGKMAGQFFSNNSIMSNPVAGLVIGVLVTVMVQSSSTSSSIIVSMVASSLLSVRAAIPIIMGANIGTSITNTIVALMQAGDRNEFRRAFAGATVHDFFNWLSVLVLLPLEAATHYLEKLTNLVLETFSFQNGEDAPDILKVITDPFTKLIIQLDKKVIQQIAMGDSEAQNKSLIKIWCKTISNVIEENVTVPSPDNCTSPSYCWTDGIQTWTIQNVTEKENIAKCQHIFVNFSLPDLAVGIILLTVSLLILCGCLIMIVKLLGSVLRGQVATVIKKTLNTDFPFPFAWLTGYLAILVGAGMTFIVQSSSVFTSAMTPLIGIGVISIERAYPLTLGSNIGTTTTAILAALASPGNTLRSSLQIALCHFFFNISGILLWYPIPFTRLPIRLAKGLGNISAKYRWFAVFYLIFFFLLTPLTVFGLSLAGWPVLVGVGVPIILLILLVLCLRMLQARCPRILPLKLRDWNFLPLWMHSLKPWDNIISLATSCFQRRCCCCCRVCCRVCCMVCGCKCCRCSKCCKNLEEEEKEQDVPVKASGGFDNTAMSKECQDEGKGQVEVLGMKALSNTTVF
Description: Test Example 1: ^33P Phosphate Uptake Inhibiting Action of Rat NPT-IIb Expressing Cell
Preparation of Rat NPT-IIb Expressing Cell
Using rat small intestine cDNA library as a template, rat NPT-IIb ORF was cloned into p3×FLAG-CMV-10 by PCR according to a standard method. Then, the cloned rat NPT-IIb expressing plasmid was transfected into 293 cells, and G418 was used to obtain a rat NPT-11b-stably expressing cell line.
Evaluation System on Inhibition of Phosphate Uptake into Rat NPT-IIb Expressing Cell
The rat NPT-Hb expressing cells were seeded into a 96-well plate and incubated overnight. The medium was taken out and washed with buffer A (137 mM N-methyl-D-glucamine, 5.4 mM KCl, 2.8 mM CaCl2, 1.2 mM MgCl2, 10 mM HEPES (adjusted to pH 7.4 with HCl)), and then buffer B (137 mM NaCl, 5.4 mM KCl, 2.8 mM CaCl2, 1.2 mM MgCl2, 0.1 mM KH2PO4, 10 mM HEPES (adjusted to pH 7.4 with KOH)) was added thereto. Then, a compound having 10-fold higher concentration relative to the evaluation concentration was prepared by dilution with the buffer B and added thereto, followed by incubation in CO2 incubator. Buffer B supplemented 50 μCi/mL ^33P was added thereto, followed by further incubation in a CO2 incubator. After the reaction, the buffer was taken out and the cells were washed with buffer C (137 mM NaCl, 10 mM Tris/HCl pH 7.2). Then, Microscint-20 was added thereto and ^33P uptake was measured by using TopCount. The inhibitory rate was determined according to the following equation.
Inhibitory rate (%)=(1−(^33P uptake of drug-treated well)/(^33P uptake of DMSO-added well))×100
For several compounds of the formula (I), rat NPT-11b inhibitory activity at a pharmacological evaluation concentration of 1 μM is shown in Table 1. Here, Ex represents Example No. as denoted below (this shall apply hereinafter).

[2] = tested on: orally 32P phosphate loaded rats; assay: Blood radioactivity increase inhibiting action in orally 32P phosphate loaded rats (phosphate absorption inhibitory action); type: in vivo; details: Rattus norvegicus, 0.5 h; 3 mg/kg oral, male Wistar rats; from serum radioactivity AUC0-30min vs control group; read-out: Phosphate absorption inhibitory rate (%)
Method: Blood Radioactivity Increase Inhibiting Action in Orally ^32P Phosphate Loaded Rats (Phosphate Absorption Inhibitory Action)
Male Wistar rats (6 to 7 weeks old) were fasted for 24 hours and used as experimental animals. The compound was dissolved or suspended with a solvent, and was used at a concentration of 0.6 mg/mL. The compound-administered animals were forcibly orally administered with the compound at a dose of 3 mg/kg. Control-group animals were administered a solvent containing no compound at a dose of 5 mL/kg. After 5 minutes from administration of the compound or from administration of the solvent, a ^32P-containing phosphate solution (8.3 mM NaH2PO4) was orally administered thereto at a dose of 7.2 mL/kg. After 15 minutes and 30 minutes, the blood was taken from the orbital venous plexus and the serum was collected. Radioactivity in 0.1 mL of the serum was measured by a liquid scintillation counter. AUC0-30min calculated from the measured counts was considered as a phosphate absorption amount. The phosphate absorption inhibitory rate was determined from the AUC0-30min value according to the following equation.
Phosphate absorption inhibitory rate (%)=(1−Phosphate absorption count of compound-administered group/Phosphate absorption count of control group)×100
As a result, it was confirmed that several compounds of the formula (I) have an intestinal phosphate absorption inhibitory action. With the several compounds of the formula (I), the phosphate absorption inhibitory rates at a pharmacological evaluation dose of 3 mg/kg are shown in Table 2.

inhibition at 1 µM [1] [%] | melting point [°C] | Structure (SMILES) | inhibition in vivo at 3 mg/kg [2] [%]
42 | 230.3 | CN(CCC(=O)O)S(=O)(=O)c1cccc(C(=O)Nc2sc3c(c2C(=O)Nc2ccc(CCc4ccc(C(=O)O)cc4)cc2)CCCC3)c1 [Example 10, 4-{2-[4-({[2-({3-[(2-carboxyethyl)(methyl)sulfamoyl]benzoyl}amino)-4,5,6,7-tetrahydro-1-benzothiophen-3-yl]carbonyl}amino)phenyl]ethyl}benzoic acid] | –
71 | 254.7 | CCN(C1(C(=O)O)CC1)S(=O)(=O)c1cccc(C(=O)Nc2sc3c(c2C(=O)Nc2ccc(CCc4ccc(C(=O)O)cc4)cc2)CCCC3)c1 [Example 14, 4-{2-[4-({[2-({3-[(1-carboxycyclopropyl)(ethyl)sulfamoyl]benzoyl}amino)-4,5,6,7-tetrahydro-1-benzothiophen-3-yl]carbonyl}amino)phenyl]ethyl}benzoic acid] | 47
75 | 261.4 | CC(C)N(C1(C(=O)O)CC1)S(=O)(=O)c1cccc(C(=O)Nc2sc3c(c2C(=O)Nc2ccc(CCc4ccc(C(=O)O)cc4)cc2)CCCC3)c1 [Example 17, 4-{2-[4-({[2-({3-[(1-carboxycyclopropyl)(isopropyl)sulfamoyl]benzoyl}amino)-4,5,6,7-tetrahydro-1-benzothiophen-3-yl]carbonyl}amino)phenyl]ethyl}benzoic acid] | –
51 | – | CN(CC(O)CO)S(=O)(=O)c1cccc(C(=O)Nc2sc3c(c2C(=O)Nc2ccc(CCc4ccc(C(=O)O)cc4)cc2)CCCC3)c1 (centres unmarked) [Example 29, 4-{2-[4-({[2-({3-[(2,3-dihydroxypropyl)(methyl)sulfamoyl]benzoyl}amino)-4,5,6,7-tetrahydro-1-benzothiophen-3-yl]carbonyl}amino)phenyl]ethyl}benzoic acid] | –
83 | – | CCOC(=O)C1(N(CC)S(=O)(=O)c2cccc(C(=O)Nc3sc4c(c3C(=O)Nc3ccc(CCc5ccc(C(=O)O)cc5)cc3)CCCC4)c2)CC1 [Example 70] | –

The remaining lines, values behind:

Structure (SMILES) | inhibition at 1 µM [1] [%] | melting point [°C] | inhibition in vivo at 3 mg/kg [2] [%]
CCN([C@H]1CC[C@H](C(=O)O)CC1)S(=O)(=O)c1cccc(C(=O)Nc2sc3c(c2C(=O)Nc2ccc(CCc4ccc(C(=O)O)cc4)cc2)CCCC3)c1 [Example 2, 4-{2-[4-({[2-({3-[(trans-4-carboxycyclohexyl)(ethyl)sulfamoyl]benzoyl}amino)-4,5,6,7-tetrahydro-1-benzothiophen-3-yl]carbonyl}amino)phenyl]ethyl}benzoic acid] | 83 | 262.8 | ≥ 60
O=C(O)c1ccc(CCc2ccc(NC(=O)c3c(NC(=O)c4cccc(S(=O)(=O)N(C5CC5)[C@H]5CC[C@H](C(=O)O)CC5)c4)sc4c3CCCC4)cc2)cc1 [Example 4, 4-{2-[4-({[2-({3-[(trans-4-carboxycyclohexyl)(cyclopropyl)sulfamoyl]benzoyl}amino)-4,5,6,7-tetrahydro-1-benzothiophen-3-yl]carbonyl}amino)phenyl]ethyl}benzoic acid] | 82 | – | ≥ 60
O=C(O)c1ccc(CCc2ccc(NC(=O)c3c(NC(=O)c4cccc(S(=O)(=O)N(C5CC5)[C@H]5CC[C@@H](C(=O)O)CC5)c4)sc4c3CCCC4)cc2)cc1 [Example 5, 4-{2-[4-({[2-({3-[(cis-4-carboxycyclohexyl)(cyclopropyl)sulfamoyl]benzoyl}amino)-4,5,6,7-tetrahydro-1-benzothiophen-3-yl]carbonyl}amino)phenyl]ethyl}benzoic acid] | 87 | – | –
CCOC(=O)CN(C1CC1)S(=O)(=O)c1cccc(C(=O)Nc2sc3c(c2C(=O)Nc2ccc(CCc4ccc(C(=O)OC)cc4)cc2)CCCC3)c1 [Example 6, methyl 4-{2-[4-({[2-({3-[cyclopropyl(2-ethoxy-2-oxoethyl)sulfamoyl]benzoyl}amino)-4,5,6,7-tetrahydro-1-benzothiophen-3-yl]carbonyl}amino)phenyl]ethyl}benzoate] | – | 186.8 | –
O=C(O)CCCN(C1CC1)S(=O)(=O)c1cccc(C(=O)Nc2sc3c(c2C(=O)Nc2ccc(CCc4ccc(C(=O)O)cc4)cc2)CCCC3)c1 [Example 12, 4-{2-[4-({[2-({3-[(3-carboxypropyl)(cyclopropyl)sulfamoyl]benzoyl}amino)-4,5,6,7-tetrahydro-1-benzothiophen-3-yl]carbonyl}amino)phenyl]ethyl}benzoic acid] | 76 | 250.8 | ≥ 60
CCN(c1ccc(C(=O)O)cc1)S(=O)(=O)c1cccc(C(=O)Nc2sc3c(c2C(=O)Nc2ccc(CCc4ccc(C(=O)O)cc4)cc2)CCCC3)c1 [Example 21] | 85 | 159.4 | –
C[C@@]1(C(=O)O)CCCN1S(=O)(=O)c1cccc(C(=O)Nc2sc3c(c2C(=O)Nc2ccc(CCc4ccc(C(=O)O)cc4)cc2)CCCC3)c1 [Example 25, 1-[(3-{[3-({4-[2-(4-carboxyphenyl)ethyl]phenyl}carbamoyl)-4,5,6,7-tetrahydro-1-benzothiophen-2-yl]carbamoyl}phenyl)sulfonyl]-2-methylproline] | 52 | – | –
CC(=O)N1CCN(S(=O)(=O)c2cccc(C(=O)Nc3sc4c(c3C(=O)Nc3ccc(CCc5ccc(C(=O)O)cc5)cc3)CCCC4)c2)CC1 [Example 27, 4-{2-[4-({[2-({3-[(4-acetylpiperazin-1-yl)sulfonyl]benzoyl}amino)-4,5,6,7-tetrahydro-1-benzothiophen-3-yl]carbonyl}amino)phenyl]ethyl}benzoic acid] | 58 | 241.4 | –
CC(C)N(Cc1cccc(C(=O)O)c1)S(=O)(=O)c1cccc(C(=O)Nc2sc3c(c2C(=O)Nc2ccc(CCc4ccc(C(=O)O)cc4)cc2)CCCC3)c1 [Example 58] | 65 | – | ≥ 60
CCCN([C@H]1CC[C@H](C(=O)O)CC1)S(=O)(=O)c1cccc(C(=O)Nc2sc3c(c2C(=O)Nc2ccc(CCCc4ccc(C(=O)O)cc4)cc2)CCCC3)c1 [Example 102] | 87 | – | ≥ 60
CC(=O)N1CCN(S(=O)(=O)c2cccc(C(=O)Nc3sc4c(c3C(=O)Nc3ccc(CCCc5ccc(C(=O)O)cc5)cc3)CCCC4)c2)CC1 [Example 109] | 52 | – | –

— patent US20130029973A1, “TETRAHYDROBENZOTHIOPHENE COMPOUND” (ASTELLAS PHARMA INC., priority 2010, published 2013)
